These results are taken from patent US10413610B2, “Liquid formulation” (Luoda Pharma Pty Ltd, priority 2012, dated 2019).

On the set-up of data set [1]: species or system dogs. Conditions: dog, in vivo. The source says: The results for both IVPs 3 and 4 are consistent with this value.
For data set [2] the following is noted: cited from earlier work.

In the case of `CCOC(=O)[C@H](CCc1ccccc1)N[C@H]1CCc2ccccc2N(CC(=O)O)C1=O` [benazepril, Benazepril], the “published AUC for benazeprilat scaled to a dose of 0.25 mg/kg” value in data set [1] stood at 114.9 ng/h/mL.

Turning to `COc1ccc(-c2nc3ccc(C4=NNC(=O)CC4C)cc3[nH]2)cc1` (racemic) [pimobendan, (RS)-6-[2-(4-methoxyphenyl)-1H-benzimidazol-5-yl]-5-methyl-4,5-dihydropyridazin-3(2H)-one], the “effect of addition of HPβCD on aqueous solubility of pimobendan” value in data set [2] (pH between 3 and 5) is listed as “does not effectively increase the aqueous solubility”. Also, the “solubility at pH 7” value in data set [2] (water, pH 7) is 0.1 mg per 100 mL. For the same compound, the “volume of water in which 1 g of pimobendan dissolves” value in data set [2] (water) is on record as 10,000 mL.
